Assay results: US9315451B2, “Tetracycline compounds” (priority 2009, dated 2016)
Where two headings read alike, the source gives them in different places.

Columns and labels:
Type in all cases: in vivo
S. aureus ATCC 13709 = experiment: Neutropenic thigh model; conditions: neutropenic female CD-1 mice, IV, doses ranging 0.3 to 30 or 0.3 to 20 mg/kg, 24 hours post treatment
Method: Neutropenic Thigh Model Female CD-1 mice were pre-treated with cyclophosphamide to render the mice neutropenic. Mice were infected with S. aureus ATCC 13709 via injection of 0.1 ml into the right thigh muscle of each mouse. One and a half hours post infection mice were treated IV with test compounds in doses ranging from 0.3 to 30 mg/kg or 0.3 to 20 mg/kg. Four mice were treated with each drug concentration. Twenty-four hours post treatment, mice were euthanized by CO2 inhalation. The right thighs of the mice were aseptically removed, weighed, homogenized, serially diluted, and plated on TSA medium. The plates were incubated overnight at 37° C. in 5% CO2. Colony forming units per gram of thigh was calculated by enumerating the plated colonies then adjusting for serial dilutions and the weight of the thigh.

[1] = test system: S. aureus Smith (ATCC 13709); experiment: Mouse systemic infection (septicemia) model, S. aureus Smith; conditions: Staphylococcus aureus, CD-1 female mice; for responders at 3 mg/kg: ATCC13709, iv, IV 3 mg/kg one hour post infection, read-out: SA Smith septicemia survival IV (3 mg/kg); for responders at 3 mg/kg / responders at 30 mg/kg: 48 h, survival at 48 hours; for responders at 30 mg/kg: ATCC13709, po, PO 30 mg/kg one hour post infection, read-out: SA Smith septicemia survival PO (30 mg/kg); for ED50: ATCC13709, dose that prevents 50% of the mice from death, 48 hours
How it was run: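 Female CD-1 mice (18-22 g) infected IP with an inoculum lethal to all within 24–48 h. Compound given 1 h post-infection IV ([…]) or PO ([…]), typically six mice per dose group; survival followed for 48 h and PD50 (mg/kg) derived from 48 h survival.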

[2] = Pharmacokinetic studies in rats; conditions: male Sprague Dawley rats; for clearance / bioavailability / AUC / Cmax: rat, plasma, fasted; for clearance: read-out: Cl, IV Rat PK; for bioavailability: oral 10 mg/kg vs IV 1 mg/kg, read-out: % F (oral bioavailability), Oral Rat PK; for Cmax: read-out: Cmax, IV Rat PK
Method: Pharmacokinetic Studies in Rats Test compounds were evaluated in fasted (no food for 18 hours prior to dosing) male Sprague Dawley rats (3 animals per group) by administration of 1 mg/kg intravenously into the jugular vein and […] by oral gavage. Ten plasma samples were drawn for each dosing route up to 24 hours into heparin-coated vacutainer tubes. The plasma concentrations of the test compounds were quantified by LC/MS/MS using an internal standards. WinNONLIN was used to determine PK parameters ±standard deviation (AUC, Cmax, CL, Vss and % oral bioavailabilty (% F) and are set forth in Table F.

[3] = test system: Uropathogenic E. coli EC200; experiment: Murine kidney infection model, uropathogenic E. coli EC200; conditions: Escherichia coli, po, 36 h, BALB/c mice, read-out: EC200 UTI PO, log10 reduction in CFUs in the kidney versus untreated controls
Method: Kidney Infection Models for Uropathogenic E. coli EC200 and K. pneumoniae ESBL Isolate KP453
Compounds were tested in a BALB/c murine kidney infection model challenged with tetracycline-resistant E. coli strain uropathogenic […] via intravenous injection. […] For IV administration test compound was dosed at 3 mg/kg. Thirty-six hours following initiation of treatment, mice were euthanized and bacterial reduction in the kidney was quantified by plating kidney homogenates. Results are reported in Table D as log10 reduction in colony forming units (CFUs) in the kidney versus untreated controls (receiving no test compound).

[4] = IV, read-out: SA Smith septicemia PD50 IV
[5] = PO, read-out: SA Smith septicemia PD50 PO
[6] = IV 1 mg/kg, read-out: AUC, IV Rat PK
[7] = oral gavage 10 mg/kg, read-out: AUC, Oral Rat PK

Compound	log10 REDUCTION in colony forming units versus untreated control group (thigh) (S. aureus ATCC 13709)	responders at 3 mg/kg [1]	responders at 30 mg/kg [1]	ED50 [1, 4]	ED50 [1, 5]	clearance ([2]; IV 1 mg/kg)	bioavailability [2]	AUC [2, 6]	Cmax ([2]; IV 1 mg/kg)	AUC [2, 7]	log reduction at 2 mg/kg ([3]; PO 2 mg/kg at 12 and 24 hours post infection)	log reduction at 3 mg/kg ([3]; PO @ 3 mpk)	12 h urine, IV Rat PK ([2]; IV 1 mg/kg, urine, 12 h)
CC(C)CNCc1cc(O)c2c(c1F)C[C@H]1C[C@H]3[C@H](N(C)C)C(O)=C(C(N)=O)C(=O)[C@@]3(O)C(O)=C1C2=O [Compound S2-4-14]	3.68 log10	100%	100%	0.84 mg/kg	12.2 mg/kg	3.88 mL/min/kg	13.7%	4430 ng·h/mL	667 ng/mL	6160 ng·h/mL	–	–	–
CN(C)[C@@H]1C(O)=C(C(N)=O)C(=O)[C@@]2(O)C(O)=C3C(=O)c4c(O)cc(CN(C)C(C)(C)C)c(F)c4C[C@H]3C[C@@H]12 [Compound S2-4-25]	4.1 log10	100%	100%	0.35 mg/kg	1.4 mg/kg	19.4 mL/min/kg	9.1%	838 ng·h/mL	214 ng/mL	826 ng·h/mL	2.78	3.63	12 h urine 11 ug/mL
